We go through two compounds from ChEMBL document CHEMBL3727375, “Antiproliferative 1,2,3-thiadiazole compounds” (2007).

The source made the active and inactive calls. No cut-off for these calls is given here.

Assay [1] is described as follows: Induction of apoptosis in rat IEC-18-13 cells assessed as healthy cells at 5 uM after 24 hrs by mitosensor dye-based fluorescence microscopy (reference value: 75%). The assay is classed as functional.
The next assay has as its system Lewis lung carcinoma. Nature of the assay: Antitumor activity against mouse LLC allografted in ip dosed mouse assessed as tumor growth inhibition administered daily. Format: functional, organism-based.
Assay [2] can be described thus: Induction of apoptosis in rat IEC-18-13 cells assessed as apoptotic cells at 5 uM after 24 hrs by mitosensor dye-based fluorescence microscopy (reference value: 25%). Format: functional.
A further assay deals with Chorioallantoic membrane. As to the kind of experiment: Antiangiogenic activity in fertilized chicken egg chorioallantoic membrane assessed as inhibition of blood vessel growth at 50 uM incubated for 2 days by dissecting microscopy relative to control. The assay is classed as functional, tissue-based. The note with it: Gallus gallus.

As to `NC(=O)c1nnsc1Nc1ccccc1`, the figures for the Activity in assay [1] and in assay [2] were 22% and 78%, respectively. In addition, in the assay on Lewis lung carcinoma, the TGI entry was “Active”.

As to `NC(=O)c1nnsc1Nc1cccc2ccccc12`, in the assay with Chorioallantoic membrane, the growth inhibition (GI) is 100%.
